Experimental data reported in US20260265256A1 (IMPACT THERAPEUTICS (SHANGHAI), INC., priority 2023, published 2026).

System: MDA-MB-436 cells
Assay: Growth inhibition assay against BRCA mutant human breast cancer MDA-MB-436 cell line (CCK-8, 7 days)
Type: cell-based
Settings: 168 h, MDA-MB-436, 7 days, read-out: IC50 (nM), proliferation of human breast cancer cells MDA-MB-436
Protocol: The cells were cultured in complete medium (DMEM medium+10% FBS+Insulin+glutathione). When the confluence reached about 80%, cells were digested and gently dispensed from the bottom of the dish with a 1 mL pipette. Cell suspension was collected and centrifuged at 500 rpm for 3 min. The supernatant was discarded, and the cell pellet were re-suspended in complete medium. The cells were seeded into a culture dish at an appropriate proportion, and then cultured in a 5% CO2 incubator at 37° C. The assay was carried out when the cells were in optimum condition and the confluence was reached 80%. Cells in the logarithmic growth phase were taken to centrifugate, and the culture supernatant was removed. The cells were resuspended in refresh complete medium and counted. The resuspended cells were seeded at 3000/well in a 96-well plate and incubated at 37° C., 5% CO2 incubator overnight. […] The solution was mixed by oscillation. 0.10% DMSO was used as the control.
The next day, the 96-well plate inoculated with cells was taken out from the incubator, and the culture supernatant was removed. Then fresh medium of 195 uL/well and 5 μL/well of 40× test compound solution as mentioned above were added into the 96 well plate, respectively. Finally, the plate was incubated for 7 days in a 37° C. 5% CO2 incubator. The medium containing compound was changed on the fourth day. After 7 days, 20 μL of CCK-8 was added to each well and shaken gently, then was cultured for 4 hours. The plate was shaken for 5 min after incubation, the absorbance values of 450 nm or 650 nm wavelengths were recorded respectively (OD=absorbance value of 450 nm−absorbance value of 650 nm) by using the multifunction readout instrument.
Data were analyzed by software GraphPad Prism 6.0. The inhibitory activity of compounds on cell proliferation was plotted using cell survival rate against the compound concentration as coordinates. Cell survival rate %=(ODcompound−ODbackground)/(ODDMSO−ODbackground)×100.
Table 2 summarizes the inhibitory effect data (IC50) of the compounds on the proliferation of human breast cancer cells MDA-MB-436.

SMILES | IC50 [nM]
CNC(=O)c1ccc(-n2cc3c(n2)CN(Cc2ccc4c([nH]c(=O)c5c(C)cnn54)c2F)C3)c(C)n1 [Example 2, 5-(5-((6-fluoro-3-methyl-4-oxo-4,5-dihydropyrazolo[1,5-a]quinoxalin-7-yl)methyl)-5,6-dihydropyrrolo[3,4-c]pyrazol-2(4H)-yl)-N,6-dimethylpicolinamide] | 57
CNC(=O)c1ccc(-n2cc3c(n2)CN(Cc2ccc4c([nH]c(=O)c5c(C)cnn54)c2F)C3)c(F)n1 [Example 3, 5-(5-((6-fluoro-3-methyl-4-oxo-4,5-dihydropyrazolo[1,5-a]quinoxalin-7-yl)methyl)-5,6-dihydropyrrolo[3,4-c]pyrazol-2(4H)-yl)-6-fluoro-N-methylpicolinamide] | 9.71
CNC(=O)c1ccc(-n2cc3c(n2)CN(Cc2ccc4c([nH]c(=O)c5c(C)cnn54)c2F)C3)c(Cl)n1 [Example 4, 5-(5-((6-fluoro-3-methyl-4-oxo-4,5-dihydropyrazolo[1,5-a]quinoxalin-7-yl)methyl)-5,6-dihydropyrrolo[3,4-c]pyrazol-2(4H)-yl)-6-chloro-N-methylpicolinamide] | 91
CNC(=O)c1ccc(-n2cc3c(n2)CN(Cc2ccc4c([nH]c(=O)c5c(C)cnn54)c2F)C3)c(O)n1 [Example 5, 5-(5-((6-fluoro-3-methyl-4-oxo-4,5-dihydropyrazolo[1,5-a]quinoxalin-7-yl)methyl)-5,6-dihydropyrrolo[3,4-c]pyrazol-2(4H)-yl)-6-hydroxy-N-methylpicolinamide] | > 100
CCNC(=O)c1ccc(-n2cc3c(n2)CN(Cc2ccc4c([nH]c(=O)c5c(C)cnn54)c2F)C3)c(F)n1 [Example 7, N-ethyl-6-fluoro-5-(5-((6-fluoro-3-methyl-4-oxo-4,5-dihydropyrazolo[1,5-a]quinoxalin-7-yl)methyl)-5,6-dihydropyrrolo[3,4-c]pyrazol-2(4H)-yl)picolinamide] | 27.2
CNC(=O)c1ccc(-n2cc3c(n2)CN(Cc2ccc4c([nH]c(=O)c5c(F)cnn54)c2F)C3)c(O)n1 [Example 17, 5-(5-((3,6-difluoro-4-oxo-4,5-dihydropyrazolo[1,5-a]quinoxalin-7-yl)methyl)-5,6-dihydropyrrolo[3,4-c]pyrazol-2(4H)-yl)-6-hydroxy-N-methylpicolinamide] | > 100
O=C(NC1CC1)c1ccc(-n2cc3c(n2)CN(Cc2ccc4c([nH]c(=O)c5c(F)cnn54)c2F)C3)cn1 [Example 20, 5-(5-((3,6-difluoro-4-oxo-4,5-dihydropyrazolo[1,5-a]quinoxalin-7-yl)methyl)-5,6-dihydropyrrolo[3,4-c]pyrazol-2(4H)-yl)-N-cyclopropylpicolinamide] | 0.65
CNC(=O)c1ccc(-n2cc3c(n2)CCN(Cc2ccc4c([nH]c(=O)c5c(F)cnn54)c2F)C3)cn1 [Example 22, 5-(5-((3,6-difluoro-4-oxo-4,5-dihydropyrazolo[1,5-a]quinoxalin-7-yl)methyl)-4,5,6,7-tetrahydro-2H-pyrazolo[4,3-c]pyridin-2-yl)-N-methylpicolinamide] | > 100
CNC(=O)c1ccc(-n2cc3c(n2)CCN(Cc2ccc4c([nH]c(=O)c5c(F)cnn54)c2F)C3)c(C)n1 [Example 23, 5-(5-((3,6-difluoro-4-oxo-4,5-dihydropyrazolo[1,5-a]quinoxalin-7-yl)methyl)-4,5,6,7-tetrahydro-2H-pyrazolo[4,3-c]pyridin-2-yl)-N,6-dimethylpicolinamide] | > 100
CNC(=O)c1ccc(-n2cc3c(n2)CCN(Cc2ccc4c([nH]c(=O)c5c(F)cnn54)c2F)C3)c(F)n1 [Example 24, 5-(5-((3,6-difluoro-4-oxo-4,5-dihydropyrazolo[1,5-a]quinoxalin-7-yl)methyl)-4,5,6,7-tetrahydro-2H-pyrazolo[4,3-c]pyridin-2-yl)-6-fluoro-N-methylpicolinamide] | > 100
